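A five-concentration, 48-hour dose response in 96-well plates underlies each endpoint, interpolated linearly between surrounding concentrations. TGI denotes the concentration required for complete inhibition of growth.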
How the values were obtained:
Test in all cases: NCI tumour cell line growth inhibition, 48 h
DLD-1 colon = system: DLD-1 colon
DMS 273 small cell lung = system: DMS 273 small cell lung
HOP-18 NSCLC = system: HOP-18 NSCLC
KM20L2 colon = system: KM20L2 colon
LXFL 529 NSCLC = system: LXFL 529 NSCLC
M19-MEL melanoma = system: M19-MEL melanoma
XF 498 CNS = system: XF 498 CNS
RXF-631 renal = system: RXF-631 renal
P388/ADR leukemia = system: P388/ADR leukemia
SN12K1 renal = system: SN12K1 renal

Compound	TGI (DLD-1 colon)	TGI (DMS 273 small cell lung)	TGI (HOP-18 NSCLC)	TGI (KM20L2 colon)	TGI (LXFL 529 NSCLC)	TGI (M19-MEL melanoma)	TGI (XF 498 CNS)	TGI (RXF-631 renal)	TGI (P388/ADR leukemia)	TGI (SN12K1 renal)
Cn1c(=O)oc2cc(C3CCC(=O)N3Cc3ccc(Cl)cc3)ccc21 (stereo not given)	> 100 µM	> 100 µM	> 100 µM	> 100 µM	> 100 µM	> 100 µM	> 100 µM	–	–	–
Cc1cc(NC(=O)NC(=O)c2ccccc2NC(=O)CN)ccc1Oc1ncc(Br)cn1	4.62 µM	38.1 µM	–	18.6 µM	75 µM	–	75 µM	–	–	–
COc1ccccc1NC(=O)CC(=O)NNCC(=O)Nc1nnc(-c2ccccc2)o1	> 100 µM	> 100 µM	–	> 100 µM	> 100 µM	> 100 µM	> 100 µM	> 100 µM	–	–
O=C(O)c1ccc(C2C3C=CC(C3)C2[N+](=O)[O-])cc1 (stereo not given)	> 100 µM	> 100 µM	–	> 100 µM	> 100 µM	> 100 µM	> 100 µM	> 100 µM	–	–
CNC(=O)OCc1[nH]ccc2c(C)c3nc4ccc(OC)cc4c3cc12	> 100 µM	> 100 µM	34.1 µM	> 27.5 µM	> 100 µM	> 100 µM	> 33.8 µM	–	–	–
O=C(O)CCCNS(=O)(=O)c1ccc2ccccc2c1	> 100 µM	> 100 µM	> 100 µM	> 100 µM	> 100 µM	> 100 µM	> 100 µM	> 100 µM	–	–
CC1=CC2CC(C)C1(C)CCc1ccoc12 (stereo not given)	> 100 µM	> 100 µM	> 100 µM	> 100 µM	> 100 µM	> 100 µM	> 100 µM	> 100 µM	–	–
CCOC(=O)C(=O)Nc1ccc(Cl)c(C(F)(F)F)c1	> 100 µM	> 100 µM	> 100 µM	> 100 µM	> 100 µM	> 100 µM	–	> 100 µM	–	–
COC(=O)C1=Cc2c(cc(OC)c(OC)c2OC)[C@H](c2ccc(OC)c(OC)c2OC)C1C(=O)OC (stereo not given in full)	> 100 µM	> 100 µM	–	> 100 µM	> 100 µM	> 100 µM	–	> 100 µM	–	–
COc1cc2c(c(OC)c1OC)-c1ccc(SC)c(=O)cc1C(CC(=O)Oc1cccc(C#N)c1)C2 (stereo not given)	> 100 µM	> 100 µM	> 100 µM	0.443 µM	> 100 µM	> 100 µM	2.23 µM	–	–	–
CC(=O)O[C@H]1CC[C@@]2(C)C(=CC[C@@H]3C2CC[C@]2(C)Nc4[nH]ncc4CC32)C1 (stereo not given in full)	93.8 µM	31.8 µM	–	85.2 µM	36.4 µM	60.1 µM	34.2 µM	34.7 µM	–	–
CCOC(=O)c1cnc2cc3cccccc3n2c1=O	> 100 µM	> 100 µM	–	> 100 µM	> 100 µM	–	–	–	–	–
O=CN1CCN(C=S)CC1	> 100 µM	> 100 µM	–	> 100 µM	> 100 µM	> 100 µM	> 100 µM	> 100 µM	–	–
CC1CC2(CCC1OCc1ccccc1)OCCO2 (stereo not given)	> 100 µM	> 100 µM	–	–	> 100 µM	> 100 µM	> 100 µM	–	–	–
Cc1cc2c(cc1Br)C1(C)CCC(C)C1(C)O2 (stereo not given)	> 100 µM	50.4 µM	> 100 µM	> 100 µM	> 100 µM	70.1 µM	50.6 µM	–	–	–
C=CCN(CC=C)CC(C(C)=O)C(c1ccccc1)c1c(O)c2ccccc2oc1=O (stereo not given)	> 100 µM	> 100 µM	–	> 100 µM	> 100 µM	> 100 µM	> 100 µM	–	–	–
Cc1c(O)c(=O)ccn1CCO	> 100 µM	–	> 100 µM	> 100 µM	> 100 µM	> 100 µM	> 100 µM	–	–	–
COC(=O)[C@]12CC=C3O[C@@H]4OC5(CCCCC5)O[C@@H]4[C@H]3C1C(=O)C=CC2=O (stereo not given in full)	29.9 µM	34.3 µM	32.6 µM	37.5 µM	23.8 µM	30.9 µM	20 µM	–	10.5 µM	31.4 µM
Clc1cc(Cl)cc(Nc2nc3ccccc3nc2-c2cccs2)c1	> 100 µM	27.2 µM	88.8 µM	–	> 100 µM	88.2 µM	73.2 µM	31.8 µM	–	–
COc1ccccc1NC(=O)C1=C(C)NC(C)=C(C(=O)Nc2ccccc2OC)C1c1cccc2c1OCO2	> 100 µM	> 100 µM	> 100 µM	> 100 µM	> 100 µM	> 100 µM	–	> 100 µM	–	–
NC(=O)c1c2c(cc3c(=O)c4ccccc4[nH]c13)CCCC2	> 100 µM	> 100 µM	> 100 µM	> 100 µM	> 100 µM	> 100 µM	> 100 µM	> 100 µM	–	–
CCOC(=O)[C@H]1Nc2ccc(Cl)cc2[C@H]2c3ccccc3O[C@H]21	> 100 µM	> 100 µM	> 100 µM	> 100 µM	> 100 µM	> 100 µM	> 100 µM	> 100 µM	–	–

Reference: PubChem BioAssay (NCI)
